How the values were obtained:
Assay in all cases: cells
Assay type in all cases: cell-based
[1] = system: HS 578T
[2] = system: SR
[3] = system: NCI-H522
[4] = system: A549/ATCC
[5] = system: COLO 205
[6] = system: OVCAR-8
[7] = system: LOX IMVI; settings: Melanoma LOX IMV1
[8] = system: NCI/ADR-RES
[9] = system: NCI-H23
[10] = system: OVCAR-5
[11] = system: HOP-62
[12] = system: CAKI-1
[13] = system: OVCAR-3; settings: OVCAR-3 (Ovarian Cancer), 10 μM, 48 hours
[14] = system: HCC-2998
[15] = system: DU-145
[16] = system: SK-MEL-2; settings: Melanoma SK-MEL-2
[17] = system: NCI-H322M
[18] = system: HL-60 (TB); settings: HL-60 (TB) (Leukemia), 10 μM, 48 hours
[19] = system: CCRF-CEM
[20] = system: NCI-H460
[21] = system: SK-MEL-5
[22] = system: M14
[23] = system: SF-539
[24] = system: HOP-92; settings: Non-Small Cell Lung Cancer HOP-92
[25] = system: PC-3
[26] = system: SF-268
[27] = system: HCT-116
[28] = system: MDA-MB-231/ATCC
[29] = system: BT-549
[30] = system: SF-295; settings: CNS Cancer SF-295
[31] = system: TK-10
[32] = Homo sapiens, Non-Small Cell Lung Cancer A549/ATCC
[33] = Homo sapiens, Non-Small Cell Lung Cancer NCI-H23
[34] = Homo sapiens, Non-Small Cell Lung Cancer HOP-62
[35] = Homo sapiens, CNS Cancer SF-539
[36] = Homo sapiens, CNS Cancer SF-268
[37] = Homo sapiens, Colon Cancer HCT-116
[38] = Homo sapiens, Breast Cancer MDA-MB-231/ATCC

`CCN(CC)CCNc1nc2ccccc2c2c1-c1ccc(Cl)cc1C2=O` [SJ-3, 6-(2-(Diethylamino)ethylamino)-9-chloro-11H-indeno[1,2-c]quinolin-11-one] showed a TGI ([1]; Breast Cancer HS 578T) of 10.00 µM, a growth percentage ([1]; HS 578T (Breast Cancer), 10 μM, 48 hours) of 84.70% and a GI50 ([1]; Homo sapiens, Breast Cancer HS 578T) of 19.3 µM. The CC50 ([1]; Homo sapiens, Breast Cancer HS 578T, read-out: LC50 (the source's name)) was 46.1 µM, the GI50 ([2]; Homo sapiens, Leukemia SR) was 5.05 µM and the LC50 (50% lethal concentration) ([2]; Homo sapiens, Leukemia SR) was 11.6 µM. The TGI ([2]; Leukemia SR) was 4.06 µM, the growth percentage ([2]; SR (Leukemia), 10 μM, 48 hours) was 46.92% and the GI50 ([3]; Homo sapiens, Non-Small Cell Lung Cancer NCI-H522) was 27.6 µM. It also gave a CC50 ([3]; Homo sapiens, Non-Small Cell Lung Cancer NCI-H522, read-out: LC50 (the source's name)) of 7.23 µM, a growth percentage ([3]; NCI-H522 (Non-Small Cell Lung Cancer), 10 μM, 48 hours) of 77.39% and a TGI ([3]; Non-Small Cell Lung Cancer NCI-H522) of 3.80 µM. It also gave a growth percentage ([4]; A549/ATCC (Non-Small Cell Lung Cancer), 10 μM, 48 hours) of 51.79%, a GI50 [4, 32] of 15.2 µM and an LC50 (50% lethal concentration) [4, 32] of 6.72 µM. For the same compound, the TGI ([4]; Non-Small Cell Lung Cancer A549/ATCC) was 3.51 µM, the growth percentage ([5]; COLO 205 (Colon Cancer), 10 μM, 48 hours) was 45.69% and the GI50 ([5]; Homo sapiens, Colon Cancer COLO 205) was 2.41 µM. It also gave a GI50 ([6]; Homo sapiens, Ovarian Cancer OVCAR-8) of 13.8 µM, a CC50 ([6]; Homo sapiens, Ovarian Cancer OVCAR-8, read-out: LC50 (the source's name)) of 7.76 µM and a growth percentage ([6]; OVCAR-8 (Ovarian Cancer), 10 μM, 48 hours) of 61.36%. It also gave a TGI ([6]; Ovarian Cancer OVCAR-8) of 3.63 µM, a GI50 ([7]; Homo sapiens, LOX IMVI) of 6.04 µM and a CC50 ([7]; Homo sapiens, LOX IMVI, read-out: LC50 (the source's name)) of 6.02 µM. The TGI [7] was 3.04 µM, the GI50 ([8]; Homo sapiens, Ovarian Cancer NCI/ADR-RES) was 19.3 µM and the CC50 ([8]; Homo sapiens, Ovarian Cancer NCI/ADR-RES, read-out: LC50 (the source's name)) was 7.41 µM. For the same compound, the growth percentage ([8]; NCI/ADR-RES (Ovarian Cancer), 10 μM, 48 hours) was 69.55%, the TGI ([8]; Ovarian Cancer NCI/ADR-RES) was 3.67 µM and the GI50 [9, 33] was 2.63 µM. It also gave an LC50 [9, 33] of 8.35 µM, a growth percentage ([9]; NCI-H23 (Non-Small Cell Lung Cancer), 10 μM, 48 hours) of 80.63% and a TGI ([9]; Non-Small Cell Lung Cancer NCI-H23) of 4.00 µM. The GI50 ([10]; Homo sapiens, Ovarian Cancer OVCAR-5) was 21.5 µM, the CC50 ([10]; Homo sapiens, Ovarian Cancer OVCAR-5, read-out: LC50 (the source's name)) was 6.52 µM and the growth percentage ([10]; OVCAR-5 (Ovarian Cancer), 10 μM, 48 hours) was 89.34%. It also gave a TGI ([10]; Ovarian Cancer OVCAR-5) of 3.32 µM, a growth percentage ([11]; HOP-62 (Non-Small Cell Lung Cancer), 10 μM, 48 hours) of 24.86% and a GI50 [11, 34] of 4.51 µM. The LC50 (50% lethal concentration) [11, 34] was 5.74 µM, the TGI ([11]; Non-Small Cell Lung Cancer HOP-62) was 2.83 µM and the growth percentage ([12]; CAKI-1 (Renal Cancer), 10 μM, 48 hours) was 64.35%. For the same compound, the GI50 ([12]; Homo sapiens, Renal Cancer CAKI-1) was 14.8 µM, the CC50 ([12]; Homo sapiens, Renal Cancer CAKI-1, read-out: LC50 (the source's name)) was 6.8 µM and the TGI ([12]; Renal Cancer CAKI-1) was 3.26 µM. It also gave a growth percentage [13] of 73.13%, a TGI ([14]; Colon Cancer HCC-2998) of 4.08 µM and a growth percentage ([14]; HCC-2998 (Colon Cancer), 10 μM, 48 hours) of 88.65%. For the same compound, the GI50 ([14]; Homo sapiens, Colon Cancer HCC-2998) was over 100 µM, the CC50 ([14]; Homo sapiens, Colon Cancer HCC-2998, read-out: LC50 (the source's name)) was 7.94 µM and the growth percentage ([15]; DU-145 (Prostate Cancer), 10 μM, 48 hours) was 65.48%. The GI50 ([15]; Homo sapiens, Prostate Cancer DU-145) was 18.8 µM, the CC50 ([15]; Homo sapiens, Prostate Cancer DU-145, read-out: LC50 (the source's name)) was 5.43 µM and the TGI ([15]; Prostate Cancer DU-145) was 2.94 µM. For the same compound, the GI50 ([16]; Homo sapiens) was 37.7 µM, the CC50 ([16]; Homo sapiens, read-out: LC50 (the source's name)) was 10.4 µM and the TGI [16] was 4.73 µM. For the same compound, the GI50 ([17]; Homo sapiens, Non-Small Cell Lung Cancer NCI-H322M) was 34.5 µM, the CC50 ([17]; Homo sapiens, Non-Small Cell Lung Cancer NCI-H322M, read-out: LC50 (the source's name)) was 36.2 µM and the growth percentage ([17]; NCI-H322M (Non-Small Cell Lung Cancer), 10 μM, 48 hours) was 69.83%. The TGI ([17]; Non-Small Cell Lung Cancer NCI-H322M) was 13.10 µM, the growth percentage [18] was 94.33% and the growth percentage ([19]; CCRF-CEM (Leukemia), 10 μM, 48 hours) was 42.00%. It also gave a GI50 ([19]; Homo sapiens, Leukemia CCRF-CEM) of 8.24 µM, a CC50 ([19]; Homo sapiens, Leukemia CCRF-CEM, read-out: LC50 (the source's name)) of 7.8 µM and a TGI ([19]; Leukemia CCRF-CEM) of 3.50 µM. The GI50 ([20]; Homo sapiens, Non-Small Cell Lung Cancer NCI-460) was 5.15 µM, the CC50 ([20]; Homo sapiens, Non-Small Cell Lung Cancer NCI-460, read-out: LC50 (the source's name)) was 6.74 µM and the growth percentage ([20]; NCI-H460 (Non-Small Cell Lung Cancer), 10 μM, 48 hours) was 25.15%. For the same compound, the TGI ([20]; Non-Small Cell Lung Cancer NCI-460) was 3.20 µM, the GI50 ([21]; Homo sapiens, Melanoma SK-MEL-5) was 1.15 µM and the TGI ([21]; Melanoma SK-MEL-5) was 2.61 µM. For the same compound, the growth percentage ([21]; SK-MEL-5 (Melanoma), 10 μM, 48 hours) was 82.51%, the GI50 ([22]; Homo sapiens, Melanoma M14) was 16.5 µM and the CC50 ([22]; Homo sapiens, Melanoma M14, read-out: LC50 (the source's name)) was 19.3 µM. It also gave a growth percentage ([22]; M14 (Melanoma), 10 μM, 48 hours) of 76.44%, a TGI ([22]; Melanoma M14) of 5.48 µM and a TGI ([23]; CNS Cancer SF-539) of 3.15 µM. For the same compound, the GI50 [23, 35] was 20.9 µM, the LC50 (concentration giving 50% net cell kill) [23, 35] was 5.86 µM and the growth percentage ([23]; SF-539 (CNS Cancer), 10 μM, 48 hours) was 85.04%. The GI50 ([24]; Homo sapiens) was 3.08 µM, the LC50 ([24]; Homo sapiens) was 25.1 µM and the TGI [24] was 5.80 µM. For the same compound, the GI50 ([25]; Homo sapiens, Prostate Cancer PC-3) was 12.5 µM, the CC50 ([25]; Homo sapiens, Prostate Cancer PC-3, read-out: LC50 (the source's name)) was 8.98 µM and the growth percentage ([25]; PC-3 (Prostate Cancer), 10 μM, 48 hours) was 41.01%. It also gave a TGI ([25]; Prostate Cancer PC-3) of 3.82 µM, a TGI ([26]; CNS Cancer SF-268) of 3.27 µM and a GI50 [26, 36] of 17.7 µM. It also gave an LC50 [26, 36] of 6.52 µM, a growth percentage ([26]; SF-268 (CNS Cancer), 10 μM, 48 hours) of 65.88% and a TGI ([27]; Colon Cancer HCT-116) of 3.19 µM. It also gave a growth percentage ([27]; HCT-116 (Colon Cancer), 10 μM, 48 hours) of 36.96%, a GI50 [27, 37] of 6.19 µM and an LC50 (50% lethal concentration) [27, 37] of 6.06 µM. For the same compound, the TGI ([28]; Breast Cancer MDA-MB-231/ATCC) was 2.71 µM, the GI50 [28, 38] was 2.23 µM and the LC50 (concentration giving 50% net cell kill) [28, 38] was 5.7 µM. For the same compound, the growth percentage ([28]; MDA-MB-231/ATCC (Breast Cancer), 10 μM, 48 hours) was 25.16%, the growth percentage ([29]; BT-549 (Breast Cancer), 10 μM, 48 hours) was 87.48% and the TGI ([29]; Breast Cancer BT-549) was 9.50 µM. For the same compound, the GI50 ([29]; Homo sapiens, Breast Cancer BT-549) was 32.5 µM, the CC50 ([29]; Homo sapiens, Breast Cancer BT-549, read-out: LC50 (the source's name)) was 45.5 µM and the TGI [30] was 4.60 µM. For the same compound, the GI50 ([30]; Homo sapiens) was 17.8 µM, the LC50 (concentration killing 50% of cells) ([30]; Homo sapiens) was 9.85 µM and the GI50 ([31]; Homo sapiens, Renal Cancer TK-10) was 24.6 µM. The CC50 ([31]; Homo sapiens, Renal Cancer TK-10, read-out: LC50 (the source's name)) was 6.38 µM, the TGI ([31]; Renal Cancer TK-10) was 3.70 µM and the growth percentage ([31]; TK-10 (Renal Cancer), 10 μM, 48 hours) was 95.55%.
